This is an account of results in patent US5478838A, “4-amino(alkyl)cyclohexane-1-carboxamide compound and use thereof” (Yoshitomi Pharmaceutical Industries, Ltd., priority 1991, dated 1995).

Test [1] is described as follows: Antihypertensive action in conscious, unrestrained SHR (i.v.), Pharmacological Experiment 1. Type of test: in vivo, spontaneously hypertensive rats (SHR). As to conditions: 0.3 mg/kg i.v., change in blood pressure. From the text:
Catheters for blood pressure measurement and for drug administration were previously inserted into carotid artery and jugular vein of spontaneously hypertensive rats (SHR) weighing 350-450 g. […] The blood pressure was automatically measured and analyzed with a pressure transducer.

A further test has as its system thoracic aorta. Description: Relaxation of phenylephrine-contracted thoracic aorta ring strips (vasodilation), Pharmacological Experiment 2. The note with it: Oryctolagus cuniculus; phenylephrine 10^-6 M; rabbit aorta ring strips; read-out: Vasodilation, IC50, concentration required to inhibit phenylephrine-induced contraction by half. As for the experimental part:
Male rabbits (weighing 1.9-3.0 kg) were anesthetized with sodium pentobarbital and dehematized to remove thoracic aorta. Ring strips (about 2 mm wide) were prepared and suspended in a 40 ml-Magnus bath filled with Krebs-Henseleit solution (NaCl 117 mM; KCl 4.7 mH; CaCl2 2.5 mH; MgSO4 1.2 mM; NaHCO3 24.8 mM; KH2 PO4 1.2 mM; glucose 11.0 mM). The resting tension of 2 g was applied. The Magnus bath was constantly aerated with a mixed gas (95% oxygen+5% carbon dioxide gas). The tension of the strips was measured by an isometric transducer (TB-611T, Nihon Kohden, Japan). The strips were contracted with phenylephrine (10^-6 M) and after the contraction became stable, the compounds were cumulatively added to the bath and relaxing response was observed. The vasodilating action of the compounds was expressed as IC50 (μM), the concentration required to inhibit phenylephurine-induced contraction (which was taken as 100%) by half.

A further test relates to left coronary artery. Description: Effect on coronary blood flow, perfused left coronary artery of anesthetized dogs, Pharmacological Experiment 3. The note with it: intracoronary injection; for Increase in coronary blood flow, ED50: dose giving half of the effect of 3 μg nifedipine. Type of test: in vivo, mongrel dog. As for the experimental part:
Groups of 2 or 3 adult mongrel dogs were anesthetized with an intravenous administration of 30 mg/kg body weight of sodium pentobarbital. According to the method of Yago et al [Folia Pharmacologica Japonica, vol. 57, p. 380 (1961)], the left coronary artery was perfused and its blood flow was measured. Test compound was injected into the coronary artery at a volume of 10-300 μg. The effects of the test compound on coronary blood flow were expressed as ED50 (μg), the dose required to increase the coronary blood flow by a half of the effects by the coronary artery injection of 3 μg of nifedipine [dimethyl 2,6-dimethyl-4-(2-nitrophenyl)-1,4-dihydropyridine-3,5-dicarboxylate].
The half life (T 1/2, minute) was also measured as the duration of effects.

The test system of a further test is trachea. Description: Effect on acetylcholine-induced contraction of isolated trachea strips (bronchodilation), Pharmacological Experiment 4. Also on record: species or system guinea pig (Hartley). As to conditions: Cavia porcellus; acetylcholine 10^-6 M contraction; papaverine 10^-4 M response taken as 100%. On the procedure:
Male Hartley guinea pigs weighing 260-390 g were anesthetized with sodium pentobarbital (100 mg/kg, i.p.). The guinea pigs were then dehematized and trachea was isolated. Ventral cartilage of the trachea was incised and ligament was insected to give 3 mm wide strips. The strips were suspended in a 40 ml-Magnus bath filled with Krebs-Henseleit solution (NaCl 117 mM; KCl 4.7 mM; CaCl2 2.5 mM; MgSO4 1.2 mM; NaHCO3 24.8 mM; KH2 PO4 1.2 mM; glucose 11.0 mM). The resting tension of 1 g was applied. The Magnus bath was constantly aerated with a mixed gas (95% oxygen+5% carbon dioxide gas). The tension of the strips was measured with an isometric transducer (TB-611T, Nihon Kohden, Japan) and recorded on a recorder (Ti-102, Tokai Irika, Japan). The strips were contracted with acetylcholine (10^-6 M) and after the contraction became stable, the compounds were cumulatively added to the bath and relaxing response was observed. The relaxation by the compounds was expressed as IC50 (μM), the concentration required to inhibit the papaverine (10^-4 M)-induced response (which was taken as 100%) by half.

Test [2] relates to experimental asthma caused by histamine inhalation. Description: Effects on experimental asthma caused by histamine inhalation, Pharmacological Experiment 5. Type of test: in vivo, guinea pig (Hartley). As to conditions: 0.2% histamine. On the procedure:
According to Suyama [Allergy, vol. 15, p. 549 (1966)], female Hartley guinea pigs weighing 490-630 g were placed in an aerosol inhalation device, and 0.2% histamine solution (histamine chloride, Nakarai Kagaku, Japan) was sprayed with an ultrasonic nebulizer (TUR-3200, Nihon Kohden, Japan). Protective action was examined using collapsing as an index. Inhalation of the test compound was performed by placing the guinea pigs in the aforementioned aerosol inhalation device and spraying the test compound dissolved in a physiological saline to a predetermined concentration for 5 minutes. Then, the guinea pigs were allowed to immediately inhale histamine and delay in collapsing by dyspnea was measured.

In the case of `C[C@@H](N)[C@H]1CC[C@H](C(=O)Nc2ccnc3[nH]ccc23)CC1` [Example 3, (+)-trans-N-(1H-pyrrolo[2,3-b]pyridin-4-yl)-4-(1-aminoethyl)cyclohexanecarboxamide], the “Antihypertensive action (SHR i.v.)” value in test [1] is given as -62 mmHg. Further, the figures for the IC50 in the test on thoracic aorta and with trachea were 90 nM and 60 nM, respectively. Besides, the “Increase in coronary blood flow, T 1/2 (half life as duration of effects)” value (“Increase … (half life as duration of effects)” for short) in the test with left coronary artery was 2.7 min. In the test on left coronary artery, the “Increase in coronary blood flow, ED50” value is 8.8 µg. Besides, the “Average time until collapsing” value in test [2] (0.01% inhaled for 5 minutes) is 152.4 ± 12.2 s; in test [2] (0.1% inhaled for 5 minutes) it was 235.4 ± 40.2 s.

On to `CC(C)(N)[C@H]1CC[C@H](C(=O)Nc2ccnc3[nH]ccc23)CC1` [Example 4, trans-N-(1H-pyrrolo[2,3-b]pyridin-4-yl)-4-(1-amino-1-methylethyl)cyclohexanecarboxamide], for which, in test [1], the “Antihypertensive action (SHR i.v.)” value was -77 mmHg. Further, in the test with thoracic aorta, the IC50 was determined as 80 nM. Also, in the test on left coronary artery, the “Increase … (half life as duration of effects)” value came out at 3.8 min and the “Increase in coronary blood flow, ED50” value was found to be 7.0 µg. The compound further registered an IC50 with trachea of 90 nM.

Regarding `C[C@@H](N)[C@H]1CC[C@H](C(=O)Nc2ccnc3[nH]ncc23)CC1` [Example 6, (+)-trans-N-(1H-pyrazolo[3,4-b]pyridin-4-yl)-4-(1-aminoethyl)cyclohexanecarboxamide], the “Antihypertensive action (SHR i.v.)” value in test [1] is -96 mmHg. In addition, the IC50 in the test on thoracic aorta was determined as 120 nM. In addition, in the test with left coronary artery, the “Increase … (half life as duration of effects)” value stood at 3.0 min and the “Increase in coronary blood flow, ED50” value is 4.3 µg. The compound also registered an IC50 with trachea of 170 nM.

In the case of `CC(C)(N)[C@H]1CC[C@H](C(=O)Nc2ccnc3[nH]ncc23)CC1` [Example 7, trans-N-(1H-pyrazolo[3,4-b]pyridin-4-yl)-4-(1-amino-1-methylethyl)cyclohexanecarboxamido], the “Antihypertensive action (SHR i.v.)” value in test [1] is reported as -53 mmHg. Besides, in the test on thoracic aorta, the IC50 was 190 nM. Further, in the test on left coronary artery, the “Increase … (half life as duration of effects)” value was 6.7 min and the “Increase in coronary blood flow, ED50” value stood at 20 µg. Also, the IC50 with trachea came out at 310 nM.
